The record followed here is patent US9765068B2, “PRMT5 inhibitors and uses thereof” (Epizyme, Inc., priority 2012, dated 2017).

pIC50: −log10 of the molar value.

Sequence of PRMT5/MEP50 (O14744 other isoform, or with tags, fused parts or gaps): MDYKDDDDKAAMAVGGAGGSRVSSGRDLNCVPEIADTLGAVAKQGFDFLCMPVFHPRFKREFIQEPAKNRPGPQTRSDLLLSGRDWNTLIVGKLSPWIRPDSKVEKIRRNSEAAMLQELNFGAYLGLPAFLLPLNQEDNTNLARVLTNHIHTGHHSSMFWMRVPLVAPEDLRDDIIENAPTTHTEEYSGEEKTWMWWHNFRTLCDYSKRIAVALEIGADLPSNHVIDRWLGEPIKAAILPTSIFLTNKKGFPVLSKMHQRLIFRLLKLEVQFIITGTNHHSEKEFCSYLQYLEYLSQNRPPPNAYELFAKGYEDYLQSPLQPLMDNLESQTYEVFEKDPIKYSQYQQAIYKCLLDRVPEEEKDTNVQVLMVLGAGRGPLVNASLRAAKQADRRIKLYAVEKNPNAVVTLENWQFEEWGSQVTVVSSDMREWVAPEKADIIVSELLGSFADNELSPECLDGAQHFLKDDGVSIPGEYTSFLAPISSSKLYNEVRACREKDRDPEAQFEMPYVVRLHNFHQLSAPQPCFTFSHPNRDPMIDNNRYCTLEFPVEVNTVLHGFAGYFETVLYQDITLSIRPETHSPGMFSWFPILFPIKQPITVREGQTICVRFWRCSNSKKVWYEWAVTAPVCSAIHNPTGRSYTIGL
Sequence of PRMT5/MEP50 (Q9BQA1 other isoform, or with tags, fused parts or gaps partner): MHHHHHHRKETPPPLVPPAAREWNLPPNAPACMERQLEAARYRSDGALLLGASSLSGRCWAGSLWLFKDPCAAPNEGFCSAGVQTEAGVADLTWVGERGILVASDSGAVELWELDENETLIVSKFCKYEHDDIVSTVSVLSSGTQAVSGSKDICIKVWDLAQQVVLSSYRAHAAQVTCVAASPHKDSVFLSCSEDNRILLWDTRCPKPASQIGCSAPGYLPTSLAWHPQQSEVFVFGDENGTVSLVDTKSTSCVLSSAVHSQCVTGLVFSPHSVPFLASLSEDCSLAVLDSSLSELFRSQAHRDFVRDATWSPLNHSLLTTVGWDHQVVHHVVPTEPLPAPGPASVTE

This experiment concerns the target PRMT5/MEP50 (Homo sapiens (Human), UniProt O14744). Description: PRMT5 Biochemical Assay (PRMT5/MEP50 enzyme assay on peptide substrate, 3H-SAM Flashplate). Particulars: PRMT5/MEP50 4 nM, 3H-SAM 75 nM, peptide 40 nM. From the text: General Materials. S-adenosylmethionine (SAM), S-adenosylhomocysteine (SAH), bicine, KCl, Tween20, dimethylsulfoxide (DMSO), bovine skin gelatin (BSG), and Tris(2-carboxyethyl)phosphine hydrochloride solution (TCEP) were purchased from Sigma-Aldrich at the highest level of purity possible. ^3H-SAM was purchase from American Radiolabeled Chemicals with a specific activity of 80 Ci/mmol. 384-well streptavidin Flashplates were purchased from PerkinElmer.
Substrates. Peptide representative of human histone H4 residues 1-15 was synthesized with a C-terminal linker-affinity tag motif and a C-terminal amide cap by 21st Century Biochemicals. […] The sequence was Ac-[…][K-Biot]-amide (SEQ ID NO.:3).
Full-length human MEP50 (NM_024102) clone was amplified from a human testis cDNA library incorporating a 5′ sequence encoding a 6-histidine tag (MHHHHHH) (SEQ ID NO.:5) fused directly to Arg 2 of MEP50. The amplified genes were sublconed into pENTR/D/TEV (Life Technologies) and subsequently transferred by Gateway™ attL×attR recombination to pDEST8 baculvirus expression vector (Life Technologies).
Protein Expression. Recombinant baculovirus and Baculovirus-Infected Insect Cells (BIIC) were generated according to Bac-to-Bac kit instructions (Life Technologies) and Wasilko, 2006, respectively. Protein over-expression was accomplished by infecting exponentially growing Spodoptera frugiperda (SF9) cell culture at 1.2×10^6 cell/ml with a 5000 fold dilution of BIIC stock. Infections were carried out at 27° C. for 72 hours, harvested by centrifugation, and stored at −80° C. for purification.
Protein Purification. […] Flag-PRMT5/6His-MeP50 was eluted with 300 mM Imidazole in the same buffer. […] Reference: Wasilko, D. J. and S. E. Lee: “TIPS: titerless infected-cells preservation and scale-up” Bioprocess J., 5 (2006), pp. 29-32.
General Procedure for PRMT5/MEP50 Enzyme Assays on Peptide Substrates.
The assays were all performed in a buffer consisting of 20 mM Bicine (pH=7.6), 1 mM TCEP, 0.005% BSG, and 0.002% Tween20, prepared on the day of use. Compounds in 100% DMSO (1 ul) were spotted into a polypropylene 384-well V-bottom plates (Greiner) using a Platemate Plus outfitted with a 384-channel head (Thermo Scientific). DMSO (1 ul) was added to Columns 11, 12, 23, 24, rows A-H for the maximum signal control and 1 ul of SAH, a known product and inhibitor of PRMT5/MEP50, was added to columns 11, 12, 23, 24, rows I-P for the minimum signal control. A cocktail (40 ul) containing the PRMT5/MEP50 enzyme and the peptide was added by Multidrop Combi (Thermo-Fisher). The compounds were allowed to incubate with PRMT5/MEP50 for 30 min at 25 degrees Celsius, then a cocktail (10 ul) containing ^3H-SAM was added to initiate the reaction (final volume=51 ul). The final concentrations of the components were as follows: PRMT5/MEP50 was 4 nM, ^3H-SAM was 75 nM, peptide was 40 nM, SAH in the minimum signal control wells was 100 uM, and the DMSO concentration was 1%. The assays were stopped by the addition of non-radioactive SAM (10 ul) to a final concentration of 600 uM, which dilutes the ^3H-SAM to a level where its incorporation into the peptide substrate is no longer detectable. 50 ul of the reaction in the 384-well polypropylene plate was then transferred to a 384-well Flashplate and the biotinylated peptides were allowed to bind to the streptavidin surface for at least 1 hour before being washed three times with 0.1% Tween20 in a Biotek ELx405 plate washer. The plates were then read in a PerkinElmer TopCount plate reader to measure the quantity of ^3H-labeled peptide bound to the Flashplate surface, measured as disintegrations per minute (dpm) or alternatively, referred to as counts per minute (cpm).
[formula] Where dpm=disintegrations per minute, cmpd=signal in assay well, and min and max are the respective minimum and maximum signal controls.
Broadly, the pIC50 is the IC50 on a negative log10 scale, so that one unit is a factor of ten. With `CN1CCCc2c(OCC(=O)NCC(O)CN3CCc4ccccc4C3)cccc21` (stereo not drawn) [Compound 151], the pIC50 was 6.00 to 7.00. In the case of `C[C@H](Oc1cccc2cccnc12)C(=O)NC[C@@H](O)CN1CCc2ccccc2C1` [Compound 72], the pIC50 was 5.00 to 6.00. Turning to `CS(=O)(=O)N1CCN(c2ccccc2OCC(=O)NCC(O)CN2CCc3ccccc3C2)CC1` (stereo not drawn) [Compound 106], the pIC50 is 6.00 to 7.00. The figure for `CC(C)(C)OC(=O)Nc1ccccc1OCC(=O)NCC(O)CN1CCc2ccccc2C1` (stereo not drawn) [Compound 141] is 5.00 to 6.00. Consider `O=C(COc1ccccc1N1CCOCC1)NC[C@@H](O)CN1CCc2ccccc2C1` [Compound 78], for which the pIC50 is 6.00 to 7.00. The value for `O=C(CCc1ccccc1)NCC(O)CN1CCc2ccccc2C1` (stereo not drawn) [Compound 2] was 5.00 to 6.00. The figure for `O=C(COc1ccccc1)NCC(O)CN1CCc2ccccc2C1` (stereo not drawn) [Compound 1, N-(3-(3,4-dihydroisoquinolin-2(1H)-yl)-2-hydroxypropyl)-2-phenoxyacetamide] is 6.00 to 7.00; for `Nc1ncccc1OCC(=O)NCC(O)CN1CCc2ccccc2C1` (stereo not drawn) [Compound 145] it is 5.00 to 6.00; for `O=C(Cc1ccccc1)NC[C@@H](O)CN1CCc2ccccc2C1` [Compound 57] it is 4.30 to 5.00.

In the case of `O=C(COc1cccc2[nH]c(=O)cnc12)NCC(O)CN1CCc2ccccc2C1` (stereo not drawn) [Compound 125], the pIC50 was 5.00 to 6.00. The figure for `CN(CC(O)CN1CCc2ccccc2C1)C(=O)COc1ccccc1` (stereo not drawn) [Compound 5] is 4.30 to 5.00. The figure for `Cc1ccc(OCC(=O)NCC(O)CN2CCc3ccccc3C2)cc1` (stereo not drawn) [Compound 9, N-(3-(3,4-dihydroisoquinolin-2(1H)-yl)-2-hydroxypropyl)-2-(p-tolyloxy)acetamide] is 6.00 to 7.00; for `CN(C)CCOc1ccccc1OCC(=O)NC[C@@H](O)CN1CCc2ccccc2C1` [Compound 89] it is 6.00 to 7.00.

`O=C(COc1cccc2c1OCC(=O)N2)NCC(O)CN1CCc2ccccc2C1` (stereo not drawn) [Compound 124]: the pIC50 was 5.00 to 6.00. The figure for `O=C(COC1CCCCC1)NCC(O)CN1CCc2ccccc2C1` (stereo not drawn) [Compound 24, 2-(cyclohexyloxy)-N-(3-(3,4-dihydroisoquinolin-2(1H)-yl)-2-hydroxypropyl)acetamide] is 6.00 to 7.00; for `O=C(COc1ccccc1OCCN1CCOCC1)NC[C@@H](O)CN1CCc2ccccc2C1` [Compound 87] it is 5.00 to 6.00. The value for `COc1ccc2cccc(OCC(=O)NC[C@H](O)CN3CCc4ccccc4C3)c2n1` [Compound 97] was 6.00 to 7.00; that for `CN(c1cccc(OCC(=O)NCC(O)CN2CCc3ccccc3C2)c1)S(C)(=O)=O` (stereo not drawn) [Compound 142] was 6.00 to 7.00. The value for `O=C(COc1ccccc1-c1c[nH]cn1)NCC(O)CN1CCc2ccccc2C1` (stereo not drawn) [Compound 115] was 4.30 to 5.00; that for `O=C(COc1ccc(F)cc1)NCC(O)CN1CCc2ccccc2C1` (stereo not drawn) [Compound 10] was 5.00 to 6.00.

Regarding `N#Cc1cccc(OCC(=O)NCC(O)CN2CCc3ccccc3C2)c1` (stereo not drawn) [Compound 8, 2-(3-cyanophenoxy)-N-(3-(3,4-dihydroisoquinolin-2(1H)-yl)-2-hydroxypropyl)acetamide], the pIC50 is 6.00 to 7.00. The value for `Cn1cc2c(OCC(=O)NCC(O)CN3CCc4ccccc4C3)cccc2n1` (stereo not drawn) [Compound 118] was 6.00 to 7.00. With `O=C(COc1cccc2cccnc12)NC[C@H](O)CN1CCc2ccccc2C1` [Compound 44, (S)—N-(3-(3,4-dihydroisoquinolin-2(1H)-yl)-2-hydroxypropyl)-2-(quinolin-8-yloxy)acetamide], the pIC50 is 6.00 to 7.00.

In the case of `CC(=O)Nc1ccc(OCC(=O)NCC(O)CN2CCc3ccccc3C2)cc1` (stereo not drawn) [Compound 21, 2-(4-acetamidophenoxy)-N-(3-(3,4-dihydroisoquinolin-2(1H)-yl)-2-hydroxypropyl)acetamide], the pIC50 was 6.00 to 7.00. The figure for `O=C(CC1CCCCC1)NC[C@H](O)CN1CCc2ccccc2C1` [Compound 56] is 5.00 to 6.00; for `O=C(COc1cccc2ncc(=O)[nH]c12)NCC(O)CN1CCc2ccccc2C1` (stereo not drawn) [Compound 129] it is 6.00 to 7.00. The value for `Cn1ccnc1-c1ccccc1OCC(=O)NCC(O)CN1CCc2ccccc2C1` (stereo not drawn) [Compound 138] was 6.00 to 7.00.
